Columns and labels:
[1] = test system: PC3/PSC27 xenograft tumors; assay: Time-extended preclinical treatment, survival of PC3/PSC27 tumor-bearing mice; type: in vivo
Method: In the preclinical chemotherapy trial, mice subcutaneously transplanted with tumors were fed standard experimental diet. After 2 weeks, the chemotherapeutics mitoxantrone (dose of 0.2 mg/kg) and/or SASP inhibitors (500 μl, dose of 10 mg/kg, RAD001, SB203580 and 5Z-7 were purchased from Tocris; LYTAK, purchased from Lilly Co ((Indianapolis, Ind.), 5 mg/kg) were administrated intraperitoneally. The timepoint was the first day of Week 3, 5, 7, and the whole course of treatment was composed of three cycles of administration, each cycle lasted for 2 weeks. After the course of treatment, mouse […] was collected for tumor measurement and histological analysis. Each mouse received cumulatively 0.6 mg mitoxantrone/kg body weight and 30 mg SASP inhibitor/kg body (15 mg/kg body weight for LYTAK1). […]
Although there was no ectopic metastasis of cancer cells, the current inventor questions whether the microenvironment causes other pathological consequences other than tumor growth and drug resistance. To this end, the present inventor evaluated the survival of multiple groups of animals under a batch of time-extended preclinical treatment conditions to determine the objective results of tumor progression. All animals were monitored for tumor volume and recognized as severe disease when the tumor volume reached a certain upper limit (size 2000 mm^3).

[2] = test system: prostate cancer epithelial cells; assay: Stromal-epithelial co-culture: PSC27 extracellular fluid on proliferation, migration, invasion of prostate cancer epithelial cells; type: cell-based, human; conditions: extracellular fluid of bleomycin-damaged PSC27 treated with TAK1 inhibitor
Method: c. Experimental Treatment In Vitro • 100 nM docetaxel (DTX), 100 nM paclitaxel (PTX), 200 nM vincristine (VCR), 50 μg/ml bleomycin (BLEO), 1 μM mitoxantrone (MIT), or 10 Gy ^137CS ionizating radiation (γ-radiation at 743 rad/min, RAD) was added to the culture medium when PSC27 cells grown to 80% (PSC27-Pre) to produce cell damage. After drug treatment for 6 hours, the cells were simply washed by PBS for 3 times and kept in the culture medium for 7 to 10 days, followed by subsequent experiments. 2. Plasmid Preparation and Lentiviral Transfection • Full-length human IKKα and Flag were cloned as a fusion protein between the restriction sites BamHI and XbaI in the expression vector pCR3.1. Full-length human mTOR and GST were cloned as a fusion protein between a pair of NotI restriction sites in the expression vector pcDNA3. Packaging cell line 293FT was used for cell transfection and lentivirus production. The sequences of small hairpin RNAs (shRNAs) for knocking out TRAF6 were as follows: • 5′-[…]-3′(SEQ ID NO: 1); and • 5′-[…]-3′ (SEQ ID NO: 2). • The sequences of small hairpin RNAs (shRNAs) for knocking out TAK1 were as follows: • 5′-[…]-3′(SEQ ID NO: 3); and • 5′-[…]-3′(SEQ ID NO: 4). • The sequences of small hairpin RNAs (shRNAs) for knocking out IL-1α were as follows: • 5′-[…]-3′(SEQ ID NO: 5); and • 5′-[…]-3′ (SEQ ID NO: 6). 3. Immunofluorescence and Histochemical Analysis • Mouse monoclonal antibody anti-phospho-Histone H2A.X (Ser139) (clone JBW301, Millipore) or mouse monoclonal antibody anti-Phosphor-53BP1 (Cat #sc-135748, Santa Cruz), and secondary antibody Alexa Fluor® 488 (or 594)-conjugated F(ab′)2 were added sequentially to slides on which cells were fixed. […] FV1000 laser scanning confocal microscopy (Olympus) was used to obtain cellular confocal fluorescence images to determine the extent of DNA damage. • Antibody anti-TAK1 used for histological IHC staining in clinical prostate, non-small cell lung cancer patients and breast cancer patients, was purchased from Proteintech, idib. […] Quantitative PCR for Measuring Gene Expression […]

COc1cc(O)c2c(c1)/C=C/C[C@H](O)[C@H](O)C(=O)/C=C\C[C@H](C)OC2=O [5Z-7, 5z-7-oxozeaenol]
survival of mice ([1]; 5Z-7 alone): only slightly prolonged
prolongation of disease-free survival ([1]; MIT/5Z-7 combination vs mitoxantrone alone, severe disease at tumor size 2000 mm^3): about 50%
in vitro migration of prostate cancer epithelial cells promoted by stromal cell extracellular fluid [2]: significantly reduced
invasion of prostate cancer epithelial cells promoted by stromal cell extracellular fluid [2]: significantly weakened
proliferation of prostate cancer epithelial cells promoted by stromal cell extracellular fluid [2]: decreased significantly

Source: patent publication US11344601B2, “Tumor microenvironment-related target TAK1 and application thereof in inhibition of tumor” (Shanghai Institutes for Biological Sciences, Chinese …, priority 2017, dated 2022)
